We go through four molecules from publication PMC11527646, “Pharmacological blockade of the mast cell MRGPRX2 receptor supports investigation of its relevance in skin disorders” (Frontiers in Immunology, 2024).

The target in assay [1] is T1, MRGPRX2 (Homo sapiens, UniProt Q96LB1).
T1 sequence (Q96LB1 1-330): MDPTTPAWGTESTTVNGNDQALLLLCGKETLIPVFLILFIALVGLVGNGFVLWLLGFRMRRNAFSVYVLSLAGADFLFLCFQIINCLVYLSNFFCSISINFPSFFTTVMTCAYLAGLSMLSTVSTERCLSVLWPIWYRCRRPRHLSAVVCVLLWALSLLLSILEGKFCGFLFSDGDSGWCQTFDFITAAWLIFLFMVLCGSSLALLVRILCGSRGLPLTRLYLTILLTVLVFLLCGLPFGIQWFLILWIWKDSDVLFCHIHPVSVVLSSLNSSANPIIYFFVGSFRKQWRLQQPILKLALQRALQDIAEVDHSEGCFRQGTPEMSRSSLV
As to the kind of experiment: LAD2 mast cell degranulation (β-hexosaminidase release), MRGPRX2 ligand-mediated. Format: cell-based. Further details: human mast cells expressing endogenous MRGPRX2; endogenous in cells; […]. On the procedure:
Two different in vitro human mast cell systems were studied: (a) a human mast cell line, LAD2, established from a patient with mast cell sarcoma; and (b) mast cells freshly isolated from human skin. MRGPRX2 antagonist IC50 values were determined in the LAD2 mast cell degranulation assay using approximately EC80 concentrations for five different MRGPRX2 activating ligands (see Supplementary Figure 1 ).

Assay [2] concerns human basophils. Description: Histamine release from human blood basophils (buffy coats). Format: cell-based. The conditions noted are these: 0.2–25 μM; non-allergic or allergic donors, with or without anti-IgE pre-incubation. On the procedure:
Blood bank buffy coats were screened for reactions against 10 inhalant allergens (grass, birch, mugwort, cat, dog, horse, Dermatophagoides pteronyssinus, Dermatophagoides farinae, Cladosporium, and Alternaria) and 10 food allergens (milk, egg, wheat, peanut, hazelnut, kiwi, cod fish, shrimp, celeriac, and soy). Five buffy coats with histamine release > 30 ng/mL to any of the tested allergens and with a histamine release to blood with anti-IgE > 30 ng/mL were included as allergic donors. Further, five buffy coats with histamine release < 10 ng/mL to any of the above-mentioned allergens and with a histamine release to blood with anti-IgE > 25 ng/mL were included as non-allergic donors.
The buffy coats were pre-incubated for 30 min at 37°C with either buffer or anti-human IgE in concentrations ranging from 0.04 µg/mL to 5 µg/mL. […] Following pre-incubation with anti-IgE and incubation with SP, released histamine was quantified as previously described ([14]). Briefly, histamine was bound to a glass fiber matrix at the bottom of microtiter plates and after a series of wash steps coupled to ortho-phtaldialdehyde before being detected fluorometrically in the Histareader™ 501 (RefLab ApS, Copenhagen, Denmark). […]
Anti-IgE pre-stimulation. Histamine release measured in blood samples pre-incubated with various concentrations of anti-lgE for 30 mins, followed by 1 hour incubation with various […]

“Also recorded” adds a separate entry of the source. Where two headings read alike, the source gives them in different places. Bridge positions count the residues as written; N and C are the ends. Peptide text beside a SMILES is read from it.

By EC50 is commonly meant the concentration giving half of the maximal effect. Turning to `C[C@@H](O)[C@@H]1NC(=O)[C@H](CCCCN)NC(=O)[C@H](Cc2c[nH]c3ccccc23)NC(=O)[C@H](Cc2ccccc2)NC(=O)[C@H](Cc2ccccc2)NC(=O)[C@H](CC(N)=O)NC(=O)[C@H](CCCCN)NC(=O)[C@@H](NC(=O)[C@@H]2CCCN2)CSSC[C@@H](C(=O)N[C@@H](CCCCN)C(=O)O)NC(=O)[C@H](CO)NC(=O)[C@H](CO)NC(=O)[C@H](Cc2ccccc2)NC1=O` [Cortistatin 14, reference compound] (H-PCKNFFWKTFSSCK-OH; disulfide 2-13; N-terminus and C-terminus assumed), the EC50 in assay [1] (representative dose response curves, read-out: LAD2 mast cell degranulation agonist EC50) was 67 nM.

`CC[C@H](C)[C@H](NC(=O)CNC(=O)[C@H](CC(=O)O)NC(=O)[C@H](CO)NC(=O)[C@@H](N)Cc1cnc[nH]1)C(=O)N[C@@H](Cc1ccccc1)C(=O)N[C@H](C(=O)N[C@@H](CC(=O)O)C(=O)N[C@@H](CO)C(=O)N[C@@H](Cc1ccc(O)cc1)C(=O)N[C@@H](CO)C(=O)N[C@@H](CCCNC(=N)N)C(=O)N[C@@H](Cc1ccc(O)cc1)C(=O)N[C@@H](CCCNC(=N)N)C(=O)N[C@@H](CCCCN)C(=O)N[C@@H](CCC(N)=O)C(=O)N[C@@H](CCSC)C(=O)N[C@@H](C)C(=O)N[C@H](C(=O)N[C@@H](CCCCN)C(=O)N[C@@H](CCCCN)C(=O)N[C@@H](Cc1ccc(O)cc1)C(=O)N[C@@H](CC(C)C)C(=O)N[C@@H](C)C(=O)N[C@@H](C)C(=O)N[C@H](C(=O)N[C@@H](CC(C)C)C(N)=O)C(C)C)C(C)C)[C@@H](C)O` [PACAP-27, reference compound] returned an EC50 in assay [1] of 218 nM.

Turning to `CSCC[C@H](NC(=O)[C@H](CC(C)C)NC(=O)CNC(=O)[C@H](Cc1ccccc1)NC(=O)[C@H](Cc1ccccc1)NC(=O)[C@H](CCC(N)=O)NC(=O)[C@H](CCC(N)=O)NC(=O)[C@@H]1CCCN1C(=O)[C@H](CCCCN)NC(=O)[C@@H]1CCCN1C(=O)[C@@H](N)CCCN=C(N)N)C(N)=O` [Substance P], in assay [2], the “Histamine release response of basophils” value was “no SP response could be detected”.

Take `COc1ccc(-n2nnnc2C(F)(F)F)cc1CN[C@H]1CCCN[C@H]1c1ccccc1` [vofopitant, reference compound]: the “Influence on Substance P-mediated mast cell degranulation” value in assay [1] (Substance P 1 μM, β-hexosaminidase release, n = 8) is given as “has no influence; also recorded: unaltered”.
